These results are taken from ChEMBL document CHEMBL1121896, “Potential histamine H2-receptor blockers. 3- and 2-indole derivatives as immobile analogues of tautomeric forms of cimetidine” (J Med Chem, 1981).

SMILES strings stand for the structures. Activity calls are given as the source filed them. The rule behind the calls is not given here.

The target of experiment [1] is Histamine H2 receptor (Cavia porcellus) (UniProt P47747). The experiment is described as follows: Ratio of potency (3*10e-5M) to that of agonist for histamine H2 receptor, in an assay for guinea pig atria chronotropic response. The format is functional.
Experiment [2] shares this target. The experiment is described as follows: Competitive antagonism of compound at histamine H2 receptor compared to 4-methylhistamine induced chronotropic response in guinea pig atria; + Potency ratio greater than 1.0. In kind it is functional.
For experiment [3] the target is unchanged. The experiment is described as follows: Competitive antagonism of compound at histamine H2 receptor compared to 4-methylhistamine induced chronotropic response in guinea pig atria; nonparallel shift in dose response curve. The note with it: filed as antagonist. The format is functional.
Experiment [4] has the same target. Kind of experiment: Competitive antagonism of compound at histamine H2 receptor compared to 4-methylhistamine as effect on resting heart rate in guinea pig atria expressed as potency ratio; Inactive. In kind it is functional, tissue-based.
The target is the same in experiment [5]. Kind of experiment: Competitive antagonism of compound at histamine H2 receptor compared to 4-methylhistamine induced chronotropic response in guinea pig atria expressed as potency ratio; Not significantly greater than 1.0 (Inactive). The format is functional.
For experiment [6] the target is unchanged. The experiment is described as follows: Ratio of potency (3*10e-5M) to that of agonist for Histamine H2 receptor, in an assay for guinea pig atria chronotropic response. The format is functional.
The target is the same in experiment [7]. Kind of experiment: Competitive antagonism of compound at histamine H2 receptor compared to 4-methylhistamine as effect on resting heart rate in guinea pig atria expressed as potency ratio; (Inactive). In kind it is functional, tissue-based.

Histamine H2 receptor (Cavia porcellus), sequence (P47747 whole entry): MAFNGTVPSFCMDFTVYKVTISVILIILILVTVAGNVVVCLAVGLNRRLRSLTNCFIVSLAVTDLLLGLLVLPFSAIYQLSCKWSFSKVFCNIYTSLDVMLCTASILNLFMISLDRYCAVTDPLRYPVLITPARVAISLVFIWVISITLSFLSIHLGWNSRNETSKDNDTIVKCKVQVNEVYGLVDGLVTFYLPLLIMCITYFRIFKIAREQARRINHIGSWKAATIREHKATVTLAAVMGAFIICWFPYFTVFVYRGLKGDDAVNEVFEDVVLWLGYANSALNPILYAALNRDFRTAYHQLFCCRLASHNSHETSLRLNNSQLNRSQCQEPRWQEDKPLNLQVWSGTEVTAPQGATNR

Consider `C/N=C(\S)NCCSCc1cc2ccccc2[nH]1`, for which, in experiment [1], the Potency ratio was 3.35. Moreover, in experiment [2], the Antagonism is greater than 1.

As for `CS/C(=N\CCSCc1c[nH]c2ccccc12)NC#N`, the Potency ratio in experiment [1] amounted to 2.56. In experiment [2], the Antagonism was greater than 1.

Take `CS/C(=N\CCSCc1cc2ccccc2[nH]1)NC#N`: the Potency ratio in experiment [1] worked out at 6.04. The Antagonism entry in experiment [3] is “Non-competitive antagonist”.

Take `S=C(NCCSCc1cc2ccccc2[nH]1)Nc1ccccc1`: the Potency ratio in experiment [1] is 2.54. The Antagonism entry in experiment [4] was “inactive”.

For `C/N=C(\NC#N)NCCSCc1c[nH]c2ccccc12`, the Potency ratio in experiment [1] came out at 0.84. The Antagonism entry in experiment [5] is “inactive”.

Turning to `S=C(NCCSCc1c[nH]c2ccccc12)Nc1ccccc1`, the Antagonism entry in experiment [5] is “inactive”. Further, in experiment [6], the Potency ratio was found to be 1.16.

On to `C/N=C(\S)NCCSCc1c[nH]c2ccccc12`, for which the Potency ratio in experiment [1] is 1.06. Further, the Antagonism in experiment [5] is greater than 1.

`C/N=C(\NC#N)NCCSCc1cc2ccccc2[nH]1`: in experiment [1], the Potency ratio was 1.76. In experiment [7], the Antagonism entry is “inactive”.

Regarding `CN/C(=N\CCSCc1nc[nH]c1C)NC#N`, the Potency ratio in experiment [1] is 36.8. The Antagonism in experiment [2] was greater than 1.
